In ChEMBL document CHEMBL1201862, “PubChem BioAssay data set” (2004):
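Five concentrations, 48 hours, 96-well plates. GI50 = concentration required for 50% inhibition of growth.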 Active and inactive are the calls of the source. No stated cut-off is given here; in the data, active = GI50 up to about 1.1 µM and inactive = higher.

Columns and labels:
Test in all cases: growth of human tumour cells (NCI), 48 h
UACC-62 = tested on: UACC-62
HOP-92 = tested on: HOP-92
M14 = tested on: M14
SK-MEL-2 = tested on: SK-MEL-2
NCI-H460 = tested on: NCI-H460
HL-60 = tested on: HL-60
COLO 205 = tested on: COLO 205
OVCAR-3 = tested on: OVCAR-3
SNB-19 = tested on: SNB-19
SR = tested on: SR
Hs-578T = tested on: Hs-578T
OVCAR-8 = tested on: OVCAR-8
SF-539 = tested on: SF-539
HOP-62 = tested on: HOP-62
PC-3 = tested on: PC-3
SNB-75 = tested on: SNB-75
CCRF-CEM = tested on: CCRF-CEM
U-251 = tested on: U-251
KM12 = tested on: KM12
NCI-H522 = tested on: NCI-H522

Measured: GI50

Nc1ncnc2c1nc(O)n2-c1ccccc1
inactive: UACC-62 > 100 µM | HOP-92 96.8 µM | M14 > 100 µM | SK-MEL-2 > 100 µM | NCI-H460 > 100 µM | HL-60 > 100 µM | COLO 205 > 100 µM | OVCAR-3 > 100 µM | SNB-19 > 100 µM | SR > 100 µM | Hs-578T > 100 µM | OVCAR-8 > 100 µM | SF-539 > 100 µM | HOP-62 > 100 µM | PC-3 > 100 µM

Cc1cc2c(c(/C=N/Cc3ccccc3)c1)OC1(C=C2)Oc2ccccc2C(=O)N1C (stereo unspecified)
inactive: UACC-62 22.4 µM | SNB-75 16.4 µM | HOP-92 17.5 µM | M14 23.2 µM | CCRF-CEM 11.6 µM | SK-MEL-2 24.9 µM | NCI-H460 25.1 µM | HL-60 21 µM | COLO 205 17.9 µM | OVCAR-3 37.4 µM | SNB-19 31.6 µM | SR 3.54 µM | Hs-578T 18.3 µM | OVCAR-8 16.5 µM | U-251 29.4 µM | KM12 25.2 µM | HOP-62 31.6 µM | PC-3 24.7 µM

Cc1cccc(C)c1NC(=O)/C=C/c1ccccc1
inactive: UACC-62 > 100 µM | SNB-75 31.2 µM | NCI-H522 18.8 µM | M14 > 100 µM | CCRF-CEM > 100 µM | SK-MEL-2 > 100 µM | NCI-H460 > 100 µM | HL-60 > 100 µM | COLO 205 > 100 µM | OVCAR-3 > 100 µM | SNB-19 > 100 µM | SR > 100 µM | Hs-578T 24.6 µM | OVCAR-8 73.1 µM | SF-539 > 100 µM | U-251 > 100 µM | KM12 > 100 µM | HOP-62 50.1 µM | PC-3 > 100 µM

Cc1nc(NC(C)(CO)CO)nc(N/N=C/c2ccc(Cl)cc2)c1C(=O)Nc1ccc(Cl)cc1
inactive: UACC-62 59.8 µM | SNB-75 > 100 µM | NCI-H522 48.1 µM | M14 > 100 µM | CCRF-CEM 42.9 µM | SK-MEL-2 > 100 µM | NCI-H460 > 100 µM | HL-60 > 100 µM | COLO 205 > 100 µM | OVCAR-3 > 100 µM | SNB-19 > 100 µM | SR > 10 µM | Hs-578T > 100 µM | OVCAR-8 > 100 µM | SF-539 > 100 µM | U-251 74.8 µM | KM12 86.7 µM | HOP-62 > 100 µM | PC-3 > 100 µM
